Source: patent US20250057990A1, “TISSUE-SPECIFIC MANGANESE BASED MRI CONTRAST AGENTS” (CASE WESTERN RESERVE UNIVERSITY, priority 2021, published 2025)
“And” between values parts separate entries of the source, which are not always exact repeats. Equal entries are not always repeated. Where two headings read alike, the source gives them in different places.

What was measured:
HepG2 hepatoma cells [1] = assay: Cell uptake analysis (ICP-OES manganese content); format: cell-based; settings: 2 mM, 2 hours
Method: Cells were plated in a 6-well plate and incubated for 1 day to adhere and proliferate. Cells were then incubated for 2 hours with 2 mM Mn(EOB-PC2A), after which they were washed three times with DPBS, trypsonized, and pelleted. Cells were resuspended in 250 μL of 75% HNO3 for 48 hours for dissolution, after which 4.75 mL distilled water was added. The samples were centrifuged at 4,000 rpm for 30 minutes to pellet any non-dissolved components and the supernatant was collected. Manganese content in the cell solution was quantified by inductively coupled plasma optical emission spectroscopy (ICP-OES 730, Agilent Technologies, Santa Clara, CA, USA).

[2] = Relaxivity measurements of Mn(EOB-PC2A) in DPBS; format: physicochemical
Method: (§1) Solutions of Mn(EOB-PC2A) were prepared in DPBS or saline containing 4.5% human serum albumin. The T1 and T2 relaxation times at 1.5T were measured using a Bruker Minispec Relaxometer ([…], 37° C.; Bruker, Billerica, MA, USA). The T1 relaxation times were also measured at 3T using an MRS3000 3T small animal scanner from MR solutions (MR Solutions, Surrey, UK) with a T1 mapping sequence (TR=10 ms, TE=4 ms, T1=50 ms, FOV=40×40 mm, slice thickness=2 mm, number of slices=1, Nav=1, matrix=256×128, flip angle=8°). The r1 and r2 relaxivities were calculated as the slope of the 1/T1 and 1/T2 vs. Mn concentration, respectively.

C57BL6 mice [3] = assay: 3D FLASH whole-body MRI; format: in vivo; set-up: key to Delta SNR: change in SNR, where SNR = s_tissue/σ_noise; settings: for Delta SNR: 0.060 mmol/kg
Method: (§2) All animal and imaging procedures were performed according to an approved Institutional Animal Care and Use Committee protocol. Male C57BL6 mice were purchased from Jackson Labs (Bar Harbor, ME, USA), housed in an animal facility.
(§3) All imaging experiments were performed using the MRS3000 3T small animal scanner. Mice (n=5) were anesthetized with 2% isoflurane, the tail vein was cannulized with a catheter, followed by transferal to the heated mouse bed of the MRI scanner. Mice were monitored with a respiration monitor while in the scanner. Before and at 15 and 30 minutes after administration of 60 μmol/kg Mn(EOB-PC2A), mice were imaged with a T1w axial fast spin-echo sequence with respiratory gating (TR=305 ms, TE=11 ms, FOV=40×40 mm, slice thickness=1 mm, number of slices=15, Nav=4, matrix=256×248) and a 3D FLASH sequence (TR=16 ms, […], T1=1000 ms, FOV=70×35 mm, slice thickness=35 mm, number of slices=1, Nav=3, matrix=256×128, flip angle=25°). Mice underwent an additional T1w axial spin-echo and 3D FLASH acquisitions at 24 hours post-injection.
(§4) MR images were exported in DICOM format, and processed and analyzed using FIJI software (https://imagej.net/software/fiji/). The signal-to-noise ratio [stissue/σnoise] and contrast-to-noise ratio [(stissue−smuscle)/σnoise] were calculated for the relevant tissues of each mouse at every time point. Subtraction images were produced for the 3D FLASH images by first dividing the pixel values of the images of each acquisition by the scaling factor assigned by the MRS software, and then subtracting the corresponding pre-contrast baseline images from the post-contrast images. Maximum intensity projections and 3-dimensional projections were produced for the raw and subtraction 3D FLASH images in FIJI using the “Z-project” function and the “3D-project” function with interpolation, respectively.

HepG2 hepatoma cells [4] = assay: Cell viability analysis (CCK8) in HepG2 cells; format: cell-based; settings: 48 hours, physiologically relevant concentrations
Method: (§5) DU145 cells were purchased from American Type Culture Collection (ATCC, Manassas, VA, USA). HepG2 cells were kindly gifted by Dr. Zhenghong Lee at Case Western Reserve University (CWRU, Cleveland, OH, USA). All cell lines were cultured in Dulbecco's Modified Eagle's Medium (DMEM, Gibco, Amarillo, TX, USA) supplemented with 1% penicillin-streptomycin (Gibco) and 10% fetal bovine serum (Gibco) and incubated at 37° C. and 5% CO2.
(§6) Cells in culture were trypsonized and counted. In a 96-well plate, cells were seeded at 5,000 cells per well and incubated for 1 day to adhere and proliferate. Cells were then incubated with increasing concentrations of the liver-targeted MBCA for 48 hours. To measure cell viability, a CCK8 assay was performed according to the manufacturer's instructions (Dojindo Molecular Technologies, Inc., Kumamoto, JP). Percent cell viability was calculated as the signal intensity of the treated well divided by the signal intensity of the untreated control wells after accounting for background signal.

[5] = test system: DU145 prostate cancer cells; assay: Cell viability analysis (CCK8) in DU145 cells; format: cell-based; settings: 48 hours, physiologically relevant concentrations
Method: as §5, §6

C57BL6 mice [6] = assay: T1-weighted axial fast spin-echo MRI of the liver; format: in vivo; settings: 0.060 mmol/kg i.v.
Method: as §2, §3, §4

[7] = Relaxivity measurements of Mn(EOB-PC2A) in saline containing 4.5% human serum albumin; format: physicochemical; settings: 4.5% human serum albumin in saline, 1.5T, 37° C.
Method: as §1

[8] = from literature, cited from earlier work
[9] = from literature, cited from earlier work; remark: listed apart in the source
[10] = in vivo; cited from earlier work
[11] = 15 minutes post-injection, relative to pre-contrast baseline
[12] = 30 minutes post-injection, relative to pre-contrast baseline
[13] = 24 hours post-injection, relative to pre-contrast baseline
[14] = blood plasma (human plasma), 1.5 T

Mn(EOB-PC2A)
intracellular concentration of Mn(II) relative to untreated cells (HepG2 hepatoma cells [1]): 17 times
r1 relaxivity Water/DPBS ([2]; 1.5T, 37° C.): 2.83 mM⁻¹ s⁻¹ and 2.8 mM⁻¹ s⁻¹
r1 relaxivity ([2]; 3 T): 2.61 mM⁻¹ s⁻¹
Delta SNR (C57BL6 mice [3]; Bladder, 15 minutes post-injection): 157.07 ± 39.02
Delta SNR (C57BL6 mice [3]; Bladder, 30 minutes post-injection): 199.96 ± 25.86
Delta SNR (C57BL6 mice [3]; Bladder, 24 hours post-injection): −2.58 ± 5.42
Delta SNR (C57BL6 mice [3]; Heart, 15 minutes post-injection): −0.04 ± 5.85
Delta SNR (C57BL6 mice [3]; Heart, 30 minutes post-injection): −2.28 ± 7.11
Delta SNR (C57BL6 mice [3]; Heart, 24 hours post-injection): 5.73 ± 16.25
Delta SNR (C57BL6 mice [3]; Kidney, 15 minutes post-injection): 27.74 ± 7.66
Delta SNR (C57BL6 mice [3]; Kidney, 30 minutes post-injection): 21.33 ± 8.28
Delta SNR (C57BL6 mice [3]; Kidney, 24 hours post-injection): 3.87 ± 5.62
Delta SNR (C57BL6 mice [3]; Liver, 15 minutes post-injection): 51.48 ± 17.20
Delta SNR (C57BL6 mice [3]; Liver, 30 minutes post-injection): 29.19 ± 14.28
Delta SNR (C57BL6 mice [3]; Liver, 24 hours post-injection): 1.36 ± 6.44
Delta SNR (C57BL6 mice [3]; Lung, 15 minutes post-injection): −0.27 ± 0.44
Delta SNR (C57BL6 mice [3]; Lung, 30 minutes post-injection): −0.41 ± 0.31
Delta SNR (C57BL6 mice [3]; Lung, 24 hours post-injection): −0.43 ± 0.71
Delta SNR (C57BL6 mice [3]; Muscle, 15 minutes post-injection): −3.63 ± 3.21
Delta SNR (C57BL6 mice [3]; Muscle, 30 minutes post-injection): −4.07 ± 5.11
Delta SNR (C57BL6 mice [3]; Muscle, 24 hours post-injection): −6.62 ± 10.13
biliary elimination (C57BL6 mice [3]; enhancement in gallbladder, particularly 30 minutes post-injection): eliminated via biliary excretion
renal elimination of unbound agent (C57BL6 mice [3]; signal enhancement in kidneys and urinary bladder, 15 and 30 minutes post-injection): rapidly excreted via renal filtration
cytotoxicity (HepG2 hepatoma cells [4]): no cytotoxicity
cytotoxicity [5]: no cytotoxicity
normalized CNR of the liver (C57BL6 mice [6]; [11]): 3.20
normalized SNR of the liver (C57BL6 mice [6]; [11]): 1.41
normalized CNR of the liver (C57BL6 mice [6]; [12]): 3.12
normalized SNR of the liver (C57BL6 mice [6]; [12]): 1.42
liver CNR (C57BL6 mice [6]; [13]): 1.16
liver SNR (C57BL6 mice [6]; [13]): 0.86
washout time after injection (C57BL6 mice [6]; liver MR signal returns to pre-contrast baseline): ≤ 24 h
r1 relaxivity Plasma/Serum [7]: 5.85 mM⁻¹ s⁻¹ and 5.9 mM⁻¹ s⁻¹

O=C([O-])CN1CCNCCN(CC(=O)[O-])Cc2cccc(n2)C1.[Mn+2] [Mn-3,9-PC2A]
r1 relaxivity Water/DPBS ([8]; water, 1.41 T): 2.2 mM⁻¹ s⁻¹
r1 relaxivity Plasma/Serum ([9]; Seronorm, 1.41 T): 3.3 mM⁻¹ s⁻¹

O=C([O-])CN1CCNCc2cccc(n2)CN(CC(=O)[O-])CC1.[Mn+2] [Mn-3,6-PC2A]
r1 relaxivity Water/DPBS ([8]; water, 1.41 T): 2.4 mM⁻¹ s⁻¹
r1 relaxivity Plasma/Serum ([9]; Seronorm, 1.41 T): 3.0 mM⁻¹ s⁻¹

O=C([O-])CN(CCN(CC(=O)[O-])CC(=O)[O-])CCN(CC(=O)[O-])C(COCc1ccccc1)C(=O)[O-].[Gd+3].[H+].[H+] (centres unmarked) [Gadobenate, gadobenate]
r1 relaxivity Water/DPBS ([8]; 1.5 T): 4.0 mM⁻¹ s⁻¹
r1 relaxivity Plasma/Serum [9, 14]: 6.3 mM⁻¹ s⁻¹

CCOc1ccc(C[C@@H](CN(CCN(CC(=O)[O-])CC(=O)[O-])CC(=O)[O-])N(CC(=O)[O-])CC(=O)[O-])cc1.[Gd+3].[H+].[H+] [Gadoxetate, gadoxetate]
time of peak enhancement after administration [10]: around 20 minutes
r1 relaxivity Water/DPBS ([8]; 1.5 T): 4.7 mM⁻¹ s⁻¹
r1 relaxivity Plasma/Serum [9, 14]: 6.9 mM⁻¹ s⁻¹

mangafodipir
r1 relaxivity Water/DPBS ([8]; 1.5 T): 1.6 mM⁻¹ s⁻¹
r1 relaxivity Plasma/Serum [9, 14]: 3.6 mM⁻¹ s⁻¹
